Patent US20240294548A1, “TRICYCLIC SULTAMS AND SULFAMIDES AS ANTITUMOR AGENTS” (PELOTON THERAPEUTICS INC., priority 2021, published 2024)
Read-outs that look alike come from different tables or passages of the source.

What was measured:
[1] = tested on: HCT116 human colorectal carcinoma cells; assay: CellTiter-Glo assay (cell viability); type: cell-based; details: HCT-116, 72 h, read-out: CTG IC50
Procedure: HCT116 human colorectal carcinoma cells were used in these experiments. HCT116 cells were obtained from ATCC. CellTiter-Glo® Luminescent Cell Viability Assay Reagent was obtained from Promega.
About 3,000 cells were seeded into 96-well plate with 100 μL of media (DMEM supplemented with 10% FBS, 100 units penicillin, and […] streptomycin per mL) the day before the experiment. For compound treatment, the master plate was prepared as follows: 100× compound stocks were prepared in a 96-well plate by 1 to 3 serial dilutions of 0.5 mM DMSO stocks. Each master plate contained serial dilution of 8 compounds, including the control compound E7820. […] of 100× compound stock was added to each well of the assay plate to give final concentrations of […]. Each concentration was tested in triplicate. After 3 days, cell viability was determined using CellTiter-Glo Luminescent Cell Viability Assay Reagent following the manufacturer's recommended protocol. Briefly, […] of CellTiter-Glo reagent was added to each well of the assay plate and the contents were mixed for 3 minutes at 600 rpm on a shaker (Thermomixer R). The plate was immediately placed in a plate reader (Synergy 2) and the luminescence signal (0.5 second per well integration time) was determined. IC50 values were calculated using Dotmatics software.

[2] = biological target: T1, DCAF15 (DDA1-DDB1ΔB-DCAF15Δpro) (Homo sapiens, UniProt Q66K64, DEL276-383); assay: DCAF15 displacement assay (displacement FRET, probe PT7795); type: binding; details: displacement of PT7795 (300 nM), compound 0.01 to 100 μM, 18 hours incubation; read-out: DCAF15 displacement IC50
T1 construct: made in house; host or cells: Sf9 (Bac-to-Bac baculovirus)
Text: (§1) Proteins used for the assays were as follows: Human DDA1 (UniProt:Q9BW61), DDB1 (UniPro: Q16531), and DCAF15 (UniProt: Q66K64) coding sequences were cloned into pFastBac1 vectors and were co-expressed in Sf9 cells using Bac-to-Bac baculovirus expression system (Thermo Fisher Scientific). The expression construct for DCAF15 includes a N-terminal His6-tag to facilitate the purification.
DCAF15 Displacement Assay (Displacement FRET KD)
Synthesis of the probe PT7795 is described in the article.
Binding of PT7795 to DDA1-DDB1AB-DCAF15Δpro was measured by the FRET signal between europium-labeled anti-His antibody (AD0205, Perkin Elmer) that is associated with His-tagged DCAF15 and ALX647 moiety in PT7795. […] After equilibrating for 2-3 hours at 4° C., the plate was removed from the incubator, briefly spun, then read on a Spark 10 (Tecan) at the excitation/emission wavelength of 340 nm/615 nm and 340 nm/665 nm.
Binding of compounds in this disclosure to DCAF15 was measured in a competition by the displacement of PT7795. The concentration of PT7795 was kept at 300 nM while the concentration of a compound was varied from 0.01 to 100 μM. The incubation time was increased to 18 hours for enhanced signal to noise level.
F=Fmin+(Fmax−Fmin)/(1+10^(logIC50−log[Compound])^n) (Equation 2)
The Kds can then be calculated from IC50s using Equation 3 (Cheng-Prusoff equation).

[3] = biological target: T2, DCAF15 RBM39 ternary complex (Homo sapiens, UniProt Q14498+Q66K64, DEL276-383); assay: DCAF15 RBM39 complex formation assay (FRET); type: biochemical; details: FRET ratio, 20 nM DDB1DB/DCAF15, 50 nM RBM39 R1R2, overnight at 4° C.; read-out: DCAF15 RBM39 ternary complex EC50
T2 construct: Amino acids 150 to 331 of RBM39 were cloned into pGEX4T3; GST (from the pGEX4T3 vector, own knowledge) followed by a TEV cleavage site (N); made in house; host or cells: Sf9 baculovirus (DDB1ΔB/DCAF15); E. coli (RBM39 R1R2)
Text: as §1
DCAF15 RBM39 Complex Formation Assay
LANCE Eu-W1024 Anti-6×His and SureLight Allophycocyanin-anti-FLAG antibodies were purchased from Perkin Elmer. Human DDB1DB and His-tagged DCAF15 were co-expressed in baculovirus/sf9 system. […] The His-tagged DCAF15 contains six histidine residues directly preceding the DCAF15 sequence without any linker. An RBM39 fragment containing RRM1 and RRM2 was expressed in E. coli.
A compound of the present disclosure in DMSO (2 μL) was transferred to a 384-well assay plate. Compound was added in 14 points, 3-fold serial dilution (1 μM to 0.6 pico molar) in DMSO. […] FRET assay buffer (25 mM HEPES, pH 7.5, 100 mM NaCl, […], 0.5 mM TCEP, 0.005% Tween-20, 0.2 nM Eu-W1024 Anti-6×His, 50 nM SureLight Allophycocyanin-anti-FLAG, 20 nM DDB1DB/DCAF15, 50 nM RBM39 R1R2) was added and the resulting solution was incubated overnight at 4° C. […] Low signal controls containing no compound and high signal controls containing 10 mM indisulam were measured for each plate.
EC50 values were calculated using Dotmatics template equation for 4-parameter fit.
Results are expressed as % formation using the following equation: […]

[4] = HCT116 cells, 3 days, CellTiter-Glo luminescence

T2 sequence (Q66K64 with tags, fused parts or gaps DEL276-383): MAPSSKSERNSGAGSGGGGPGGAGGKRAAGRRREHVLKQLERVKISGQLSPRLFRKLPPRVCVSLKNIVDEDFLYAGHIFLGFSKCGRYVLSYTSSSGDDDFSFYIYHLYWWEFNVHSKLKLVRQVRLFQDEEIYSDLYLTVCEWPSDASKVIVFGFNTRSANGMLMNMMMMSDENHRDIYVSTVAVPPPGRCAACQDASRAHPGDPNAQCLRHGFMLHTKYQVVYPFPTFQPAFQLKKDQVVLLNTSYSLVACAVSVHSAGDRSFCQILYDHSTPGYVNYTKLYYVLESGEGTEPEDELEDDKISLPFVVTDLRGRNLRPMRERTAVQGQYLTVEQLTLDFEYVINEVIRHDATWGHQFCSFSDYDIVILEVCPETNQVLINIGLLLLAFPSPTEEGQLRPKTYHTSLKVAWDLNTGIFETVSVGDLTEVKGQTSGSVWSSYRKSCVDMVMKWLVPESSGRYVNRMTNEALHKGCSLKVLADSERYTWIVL
T2 sequence (Q14498 150-331, stated change not applied): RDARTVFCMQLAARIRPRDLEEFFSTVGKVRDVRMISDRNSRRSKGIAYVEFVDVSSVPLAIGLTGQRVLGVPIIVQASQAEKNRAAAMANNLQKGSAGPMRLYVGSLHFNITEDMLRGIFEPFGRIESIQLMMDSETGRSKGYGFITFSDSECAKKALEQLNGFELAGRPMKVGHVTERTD

| Compound | IC50 [1, 4] [µM] | IC50 [2] [µM] | EC50 [3] [µM] | IC50 [1] [µM] |
| --- | --- | --- | --- | --- |
| O=S1(=O)Nc2c(cc(Cl)c3c(Cl)c[nH]c23)CN1Cc1ccncc1 [Compound 20, 6,7-dichloro-3-(pyridin-4-ylmethyl)-1,3,4,9-tetrahydro-[1,2,6] thiadiazino[4,3-g] indole 2,2-dioxide] | 0.155 | 1.07 | 0.0007 | – |
| COc1ccc(CN2Cc3cc(Cl)c4c(Cl)c[nH]c4c3NS2(=O)=O)cn1 [Compound 21, 6,7-dichloro-3-((6-methoxypyridin-3-yl)methyl)-1,3,4,9-tetrahydro-[1,2,6]thiadiazino [4,3-g]indole 2,2-dioxide] | 0.415 | 0.56 | 0.0015 | – |
| CC(c1ccccc1)N1Cc2cc(Cl)c3c(Cl)c[nH]c3c2NS1(=O)=O (stereo not drawn) [Compound 23, 6,7-dichloro-3-(1-phenylethyl)-1,3,4,9-tetrahydro-[1,2,6] thiadiazino[4,3-g] indole 2,2-dioxide] | 0.591 | 9.59 | 0.0028 | – |
| O=S1(=O)Nc2c(cc(Cl)c3c(Cl)c[nH]c23)CN1Cc1cccnc1 [Compound 26, 6,7-dichloro-3-(pyridin-3-ylmethyl)-1,3,4,9-tetrahydro-[1,2,6] thiadiazino[4,3-g] indole 2,2-dioxide] | 0.13 | 0.507 | 0.0012 | – |
| O=S1(=O)Nc2c(cc(Cl)c3c(Cl)c[nH]c23)CN1Cc1cccnc1Cl [Compound 27, 6,7-dichloro-3-((2-chloropyridin-3-yl)methyl)-1,3,4,9-tetrahydro-[1,2,6]thiadiazino [4,3-g]indole 2,2-dioxide] | 0.14 | 0.647 | 0.0008 | – |
| O=S1(=O)NCc2nc(Cl)c3c(Cl)c[nH]c3c2N1 [Compound 31, 6,7-dichloro-1,3,4,9-tetrahydropyrrolo[2′,3′:4,5]pyrido[3,2-c][1,2,6]thiadiazine 2,2-dioxide] | 4.51 | ≥ 100 | 0.263 | – |
| O=S1(=O)Nc2c(cc(Cl)c3c(Cl)c[nH]c23)CN1Cc1cncnc1 [Compound 33, 6,7-dichloro-3-(pyrimidin-5-ylmethyl)-1,3,4,9-tetrahydro-[1,2,6]thiadiazino[4,3-g] indole 2,2-dioxide] | 0.162 | 0.53 | 0.0023 | – |
| O=S1(=O)Nc2c(cc(Cl)c3c(Cl)c[nH]c23)CN1CC1COC1 [Compound 34, 6,7-dichloro-3-(oxetan-3-ylmethyl)-1,3,4,9-tetrahydro-[1,2,6]thiadiazino[4,3-g]indole 2,2-dioxide] | – | 0.689 | 0.0018 | 0.126 |
| O=S1(=O)Nc2c(cc(Cl)c3c(Cl)c[nH]c23)CN1Cc1ccncc1Cl [Compound 35, 6,7-dichloro-3-((3-chloropyridin-4-yl)methyl)-1,3,4,9-tetrahydro-[1,2,6]thiadiazino [4,3-g]indole 2,2-dioxide] | 0.118 | 0.21 | 0.004 | – |
| Cc1nnc(CN2Cc3cc(Cl)c4c(Cl)c[nH]c4c3NS2(=O)=O)o1 [Compound 36, 6,7-dichloro-3-((5-methyl-1,3,4-oxadiazol-2-yl)methyl)-1,3,4,9-tetrahydro-[1,2,6] thiadiazino[4,3-g]indole 2,2-dioxide] | 0.236 | 0.963 | 0.0021 | – |
| Cn1cnc(CN2Cc3cc(Cl)c4c(Cl)c[nH]c4c3NS2(=O)=O)n1 [Compound 37, 6,7-dichloro-3-((1-methyl-1H-1,2,4-triazol-3-yl)methyl)-1,3,4,9-tetrahydro-[1,2,6] thiadiazino[4,3-g]indole 2,2-dioxide] | 0.568 | 2 | 0.0025 | – |
| Cn1ncnc1CN1Cc2cc(Cl)c3c(Cl)c[nH]c3c2NS1(=O)=O [Compound 38, 6,7-dichloro-3-((1-methyl-1H-1,2,4-triazol-5-yl)methyl)-1,3,4,9-tetrahydro-[1,2,6] thiadiazino[4,3-g]indole 2,2-dioxide] | 0.263 | 0.458 | 0.0013 | – |
| O=S1(=O)Nc2c(cc(Cl)c3c(Cl)c[nH]c23)CN1Cc1cccnn1 [Compound 42, 6,7-dichloro-3-(pyridazin-3-ylmethyl)-1,3,4,9-tetrahydro-[1,2,6]thiadiazino[4,3-g]indole 2,2-dioxide] | 0.297 | 0.588 | 0.0007 | – |

Further lines, with some results ahead:

| IC50 [1, 4] [µM] | IC50 [2] [µM] | EC50 [3] [µM] | Compound | IC50 [1] [µM] |
| --- | --- | --- | --- | --- |
| 0.799 | 8.3 | 0.0039 | O=S1(=O)Nc2c(cc(Cl)c3c(Cl)c[nH]c23)CN1CCO [Compound 24, 6,7-dichloro-3-(2-hydroxyethyl)-1,3,4,9-tetrahydro-[1,2,6] thiadiazino[4,3-g]indole 2,2-dioxide] | – |
| 0.992 | 52.2 | 0.0034 | O=S1(=O)Nc2c(cc(Cl)c3c(Cl)c[nH]c23)CN1CCCC(F)(F)C(F)(F)F [Compound 25, 6,7-dichloro-3-(4,4,5,5,5-pentafluoropentyl)-1,3,4,9-tetrahydro-[1,2,6] thiadiazino[4,3-g]indole 2,2-dioxide] | – |
| 0.501 | 28 | 0.0014 | CNCCN1Cc2cc(Cl)c3c(Cl)c[nH]c3c2NS1(=O)=O [Compound 28, 6,7-dichloro-3-(2-(methylamino)ethyl)-1,3,4,9-tetrahydro-[1,2,6] thiadiazino[4,3-g]indole 2,2-dioxide] | – |
| 0.269 | 4.12 | 0.0019 | O=S1(=O)Nc2c(cc(Cl)c3c(Cl)c[nH]c23)CN1CCCC(F)(F)F [Compound 32, 6,7-dichloro-3-(4,4,4-trifluorobutyl)-1,3,4,9-tetrahydro-[1,2,6] thiadiazino[4,3-g]indole 2,2-dioxide] | – |
| 4.99 | 0.285 | 0.0012 | O=S1(=O)Nc2c(cc(Cl)c3c(Cl)c[nH]c23)CN1CC1CCNCC1 [Compound 39, 6,7-dichloro-3-(piperidin-4-ylmethyl)-1,3,4,9-tetrahydro-[1,2,6]thiadiazino[4,3-g]indole 2,2-dioxide] | – |
| 0.537 | 1.56 | 0.0016 | CC(=O)NCCN1Cc2cc(Cl)c3c(Cl)c[nH]c3c2NS1(=O)=O [Compound 40, N-(2-(6,7-dichloro-2,2-dioxido-4,9-dihydro-[1,2,6]thiadiazino[4,3-g]indol-3(1H)-yl)ethyl) acetamide] | – |
| 0.183 | 17.5 | 0.0106 | CN(C)CCN1Cc2cc(Cl)c3c(Cl)c[nH]c3c2NS1(=O)=O [Compound 41, 6,7-dichloro-3-(2-(dimethylamino)ethyl)-1,3,4,9-tetrahydro-[1,2,6] thiadiazino[4,3-g]indole 2,2-dioxide] | – |
